Laboratory results: US7968561B2, “Steroidal compounds as steroid sulphatase inhibitors” (Sterix Limited, priority 2006, dated 2011)

Tests used:
[1] = Plasma oestradiol concentrations by radioimmunoassay; type: in vivo, mice; settings: Study 2: once weekly dosing, extended period after cessation of dosing
Description: (§1) Ovariectomised, athymic female MF-1 nude mice (nu/nu) (age 6-8 weeks) were obtained from Harlan Olac. Twenty four hours before the inoculation of MCF-7STS cells animals were injected s.c. with estradiol sulphate (E2S). On the day of inoculation 5×10^6 MCF-7STS cells (50 μl in Matrigel) were injected s.c. into the right flank of the mice. After cell inoculation mice were injected with E2S (100 μg/50 μl) and received another injection of these steroids 24 h later. Mice then received E2S 3 times per week until the end of the study. When tumours had reached approximately 80 mm^3 dosing was initiated with compounds being administered orally (100 μl; vehicle 10% THF: 90% propylene glycol) at 1 mg/kg. Tumour measurements and the weight of animals were recorded weekly. Samples of tumour and liver tissues together with blood were collected at a number of time points after the cessation of dosing.
Plasma oestradiol concentrations were measured by a specific radioimmunoassay procedure.

[2] = biological target: T1, STS (Mus musculus, UniProt P50427); experiment: Liver STS activity in MCF-7STS xenograft mice; type: in vivo; settings: Study 2: 1 mg/kg p.o. once per week
T1 construct: from tissue; host or cells: liver of MF-1 nude mice, homogenate
T1 sequence (P50427 23-624): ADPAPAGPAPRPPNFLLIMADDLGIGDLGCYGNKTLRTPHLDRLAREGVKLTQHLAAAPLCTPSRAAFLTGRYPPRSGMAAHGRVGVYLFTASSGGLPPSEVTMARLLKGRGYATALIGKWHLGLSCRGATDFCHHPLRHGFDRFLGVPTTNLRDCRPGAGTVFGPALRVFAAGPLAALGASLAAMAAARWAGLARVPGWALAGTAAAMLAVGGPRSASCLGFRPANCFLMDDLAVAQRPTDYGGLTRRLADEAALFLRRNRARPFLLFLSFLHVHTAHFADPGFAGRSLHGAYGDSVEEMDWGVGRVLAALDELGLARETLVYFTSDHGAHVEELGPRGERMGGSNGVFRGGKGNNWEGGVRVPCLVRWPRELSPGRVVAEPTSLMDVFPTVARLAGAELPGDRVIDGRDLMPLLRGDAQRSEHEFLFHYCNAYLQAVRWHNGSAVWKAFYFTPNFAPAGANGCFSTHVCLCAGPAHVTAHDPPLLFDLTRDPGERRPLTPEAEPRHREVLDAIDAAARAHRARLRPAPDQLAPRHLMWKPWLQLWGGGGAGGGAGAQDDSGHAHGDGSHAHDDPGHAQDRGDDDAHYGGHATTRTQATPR
Description: as §1
Samples of tumour or liver tissues were homogenised in phosphate buffered saline (pH 7.4 containing 250 mM sucrose). Duplicate aliquots were incubated for 4 h with [^3H-E1S] […] An aliquot of the toluene was removed and the ^3H and ^14C radioactivity measured by liquid scintillation spectrometry. The mass of oestrone sulphate hydrolysed was calculated form the ^3H counts detected, corrected for procedural losses.

[3] = test system: MCF-7STS cells (MCF-7 cells over expressing STS); experiment: Growth of E2S-stimulated MCF-7STS xenograft tumours in nude mice; type: in vivo; settings: Study 2: 1 mg/kg p.o. once per week for 7 weeks
Description: Ovariectomised, athymic female MF-1 nude mice (nu/nu) (age 6-8 weeks) were obtained from Harlan Olac. Twenty four hours before the inoculation of MCF-7STS cells animals were injected s.c. with estradiol sulphate (E2S). On the day of inoculation 5×10^6 MCF-7STS cells (50 μl in Matrigel) were injected s.c. into the right flank of the mice. After cell inoculation mice were injected with E2S (100 μg/50 μl) and received another injection of these steroids 24 h later. Mice then received E2S 3 times per week until the end of the study. […] Tumour measurements and the weight of animals were recorded weekly. Samples of tumour and liver tissues together with blood were collected at a number of time points after the cessation of dosing.
Tumours were measured weekly and their volumes calculated using the equation length×width^2/2.
Student's t test was used to assess the significance of the differences in tumour volumes for the different groups.

[4] = rats; cited from earlier work
[5] = biological target: T2, E1-STS (Rattus norvegicus, UniProt P15589); settings: administered orally or subcutaneously; cited from earlier work
T2 construct: host or cells: rat liver
T2 sequence (P15589 20-577): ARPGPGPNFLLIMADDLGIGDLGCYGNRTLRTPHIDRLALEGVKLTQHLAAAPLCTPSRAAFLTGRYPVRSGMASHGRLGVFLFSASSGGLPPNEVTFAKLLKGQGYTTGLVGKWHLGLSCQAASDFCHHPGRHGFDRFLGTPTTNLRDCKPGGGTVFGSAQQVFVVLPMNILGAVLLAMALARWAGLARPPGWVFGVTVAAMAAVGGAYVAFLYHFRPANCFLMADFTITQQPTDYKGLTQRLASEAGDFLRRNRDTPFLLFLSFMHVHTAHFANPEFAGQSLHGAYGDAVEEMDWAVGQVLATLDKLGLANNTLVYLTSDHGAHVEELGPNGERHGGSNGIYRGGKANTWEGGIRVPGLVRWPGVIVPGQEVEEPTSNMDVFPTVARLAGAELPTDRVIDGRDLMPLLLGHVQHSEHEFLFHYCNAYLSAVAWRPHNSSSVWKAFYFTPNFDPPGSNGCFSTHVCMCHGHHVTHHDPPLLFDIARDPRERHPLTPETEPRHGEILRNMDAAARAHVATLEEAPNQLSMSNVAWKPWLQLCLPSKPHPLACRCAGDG

[6] = biological target: T3, dehydroepiandrosterone sulphatase (DHA-STS) (Rattus norvegicus, UniProt P15589); settings: administered orally or subcutaneously; cited from earlier work
T3 construct: host or cells: rat liver
T3 sequence (P15589 20-577): T2 sequence (P15589 20-577)

[7] = biological target: T4, E1-STS (Homo sapiens, UniProt P08842); parameters: dose or concentration left out as unconfirmed; settings: intact MCF-7 cells; cited from earlier work
T4 construct: endogenous in cells; host or cells: intact MCF-7 cells
T4 sequence (P08842 22-583): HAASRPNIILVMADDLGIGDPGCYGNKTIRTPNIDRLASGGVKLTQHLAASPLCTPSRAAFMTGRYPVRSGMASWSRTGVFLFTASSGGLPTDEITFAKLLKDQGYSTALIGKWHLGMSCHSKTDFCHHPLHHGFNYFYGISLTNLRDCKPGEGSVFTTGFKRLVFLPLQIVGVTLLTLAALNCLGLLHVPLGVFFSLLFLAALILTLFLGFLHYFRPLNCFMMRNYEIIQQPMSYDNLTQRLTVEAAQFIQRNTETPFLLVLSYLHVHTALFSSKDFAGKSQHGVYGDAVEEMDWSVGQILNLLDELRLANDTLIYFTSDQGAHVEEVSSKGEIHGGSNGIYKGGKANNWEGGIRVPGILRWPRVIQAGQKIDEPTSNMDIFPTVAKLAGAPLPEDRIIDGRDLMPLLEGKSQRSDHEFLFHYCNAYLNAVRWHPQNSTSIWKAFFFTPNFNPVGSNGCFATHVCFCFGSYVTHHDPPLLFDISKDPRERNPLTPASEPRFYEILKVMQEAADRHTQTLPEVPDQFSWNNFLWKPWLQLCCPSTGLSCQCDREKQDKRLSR

[8] = biological target: T5, STS (Rattus norvegicus, UniProt P15589); experiment: STS activity in rat livers 15 days after a single p.o. dose; type: in vivo; settings: rat liver
T5 construct: from tissue; host or cells: rat liver
T5 sequence (P15589 20-577): T2 sequence (P15589 20-577)

[9] = biological target: T6, steroid sulphatase (STS) (Homo sapiens, UniProt P08842); experiment: IC50 for steroid sulphatase inhibition measured in JEG-3 cells; type: cell-based
T6 construct: endogenous in cells; host or cells: JEG-3 cells
T6 sequence (P08842 22-583): T4 sequence (P08842 22-583)

SMILES: C[C@]12CCC3c4ccc(OS(N)(=O)=O)cc4CCC3C1CC(=O)N(CCC(F)(F)F)C2=O (some centres unmarked) [STX1938, 3-Sulfomoyloxy-N-(3,3,3-trifluoropropyl)-16,17-seco-Estra-1,3,5(10)-triene-16,17-imide]
- plasma oestradiol levels [1]: significantly reduced
- inhibition of liver STS [2]: almost complete inhibition

SMILES: NS(=O)(=O)Oc1ccc2c3c(c(=O)oc2c1)CCCCC3 [STX64]
- tumour growth [3]: ineffective
- reduction of liver STS activity [2]: 25-50%

SMILES: C[C@]12CC[C@@H]3c4ccc(OS(N)(=O)=O)cc4CC[C@H]3[C@@H]1CCC2=O [EMATE, estrone-3-O-sulfamate]
- oral uterotrophic activity relative to oestradiol [4]: 100 times
- inhibition of rat liver E1-STS activity [5]: 99%
- inhibition of rat liver DHA-STS activity [6]: 99%
- inhibition of E1-STS activity [7]: more than 99%

SMILES: CCCN1C(=O)CC2C3CCc4cc(OS(N)(=O)=O)ccc4C3CC[C@]2(C)C1=O (some centres unmarked) [STX213]
- STS activity recovered [8]: 69%
- inhibition of STS activity [8]: 31%
- IC50 [9]: 0.18 nM
